The values that follow come from PMC6327983, “Discovery of cyanopyridine scaffold as novel indoleamine-2,3-dioxygenase 1 (IDO1) inhibitors through virtual screening and preliminary hit optimisation” (Journal of Enzyme Inhibition and Medicinal Chemistry, 2019).

One series addresses T1, IDO1 (Homo sapiens, UniProt P14902).
T1 construct: made in house
The experiment in a line: Enzyme-based IDO1 activity assay. It counts as biochemical. The settings on record: for IC50 / Enzymatic assay IC50 (hIDO1): purified human IDO1 enzyme; for IC50: read-out: Enzymatic assay IC50 (hIDO1); for Inhibition ratio (%) @10 μM: 10 μM compound, purified recombinant IDO1.

The subject of the next series is HeLa. The settings on record: Figure 1, literature value; cited from earlier work.
Another series addresses HeLa (IDO1) (Homo sapiens, UniProt P14902). In words: Cell-based IDO1 activity assay (HeLa kynurenine assay). Particulars: IFN-γ stimulated HeLa cells; for EC50: 24 h, read-out: Cellular assay EC50 HeLa (IDO1); for Hill slope of the curves (cellular dose response): Figure 9. As for the experimental part: After incubation for 24 h, 140 µL of supernatant was mixed with 10 µL of 6.1 N trichloroacetic acid and the mixture was incubated for 30 min at 60 °C. The reaction mixture was then centrifuged for 20 min at 4000 rpm at 0 °C to remove sediments. About 100 µL of the supernatant was mixed with 100 µL of 2% (w/v) p-DMAB in acetic acid and measured at 480 nm. The final DMSO concentration was 0.5%. The data were analysed using Graphpad Prism 6.
The HeLa-based cellular assay is informative for drug development, as it evaluates not only the IDO1 inhibitory effect of the compounds but also their capacity to permeate the cell, their inhibition of tryptophan and kynurenine transport and their potential cytotoxicity. […] In addition, since the inhibition of tryptophan degradation could simply be an effect of cytotoxicity, thus the determination of cell viability was necessary when reporting cellular IC50 values. In the initial work, all of the screened compounds were determined for their cell viability using the classical MTT assy.

Another series relates to SKOV3. Set-up: method as in earlier work. Particulars: Figure 1, literature values; 27 (4), 28 (5); cited from earlier work.

In general, melting point refers to the temperature, or range, at which the solid turns liquid. As usually defined, the IC50 is the concentration at which inhibition is half-maximal. As a reminder, the EC50 is the midpoint of the concentration-response curve.

Sequence of HeLa (IDO1) (P14902 whole entry): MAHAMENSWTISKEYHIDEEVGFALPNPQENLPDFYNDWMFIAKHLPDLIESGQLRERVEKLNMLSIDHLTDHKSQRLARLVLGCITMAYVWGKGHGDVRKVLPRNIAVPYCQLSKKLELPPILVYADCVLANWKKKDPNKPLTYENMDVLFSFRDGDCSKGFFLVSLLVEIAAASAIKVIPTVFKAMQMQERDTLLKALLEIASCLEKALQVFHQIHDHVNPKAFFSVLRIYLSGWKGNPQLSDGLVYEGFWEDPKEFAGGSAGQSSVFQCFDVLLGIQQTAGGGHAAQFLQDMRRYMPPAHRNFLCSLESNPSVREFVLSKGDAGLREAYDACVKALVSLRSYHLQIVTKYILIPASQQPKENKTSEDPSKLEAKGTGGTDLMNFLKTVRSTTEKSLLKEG
T1 sequence (P14902 whole entry): as above

Take `O=C(CSc1cccc(C(F)(F)F)n1)Nc1ccc(F)c(Cl)c1` [LBJ-14, N-(3-Chloro-4-fluorophenyl)-2-((6-(trifluoromethyl)pyridin-2-yl)thio)acetamide]: the melting point fell in the range of 86 to 88 °C. Moreover, the IC50 on IDO1 stood at 35.7 ± 1.25 µM.

On to `O=S(=O)(NC1CCCc2ccccc21)c1ccc(Br)cc1` (stereo not shown) [LVS-027], for which the “Inhibition ratio (%) @10 μM” value at IDO1 worked out at 3.37 ± 0.04%.

`Cc1ccc(NC(=O)CSc2nc(C(F)(F)F)ccc2C#N)cc1` [LBJ-12, 2-((3-Cyano-6-(trifluoromethyl)pyridin-2-yl)thio)-N-(p-tolyl)acetamide] had a melting point of 212 to 214 °C. Also, the IC50 at IDO1 was determined as 17.9 ± 1.28 µM.

Turning to `Sc1nnc(-c2csc3c2CCCC3)n1Cc1ccccc1` [LVS-032], the IC50 at IDO1 stood at 10.4 ± 1.01 µM.

As for `CCOc1ccc(/C=c2\sc3nnc(-c4ccccc4Cl)n3c2=O)cc1` [LVS-015], at IDO1, the “Inhibition ratio (%) @10 μM” value was 11.05 ± 0.02%.

On to `N#Cc1cc2c(nc1SCC(=O)Nc1sc3c(c1C#N)CCCC3)CCCCCC2` [LVS-049], for which the IC50 on IDO1 was 14.8 ± 3.14 µM.

As for `CN1CCc2nc(SCC(=O)Nc3sc4c(c3C#N)CCCC4)c(C#N)cc2C1` [LVS-050], the “Enzymatic assay IC50 (hIDO1)” value at IDO1 is on record as “Not Converged”.

With `N#Cc1ccncc1SCC(=O)Nc1ccc(F)cc1` [LBJ-04, 2-((4-Cyanopyridin-3-yl)thio)-N-(4-fluorophenyl)acetamide], the melting point is 206 to 209 °C. Also, the IC50 on IDO1 is 43.6 ± 0.85 µM.

For the compound “4-amino-1,2,5-oxadiazole-3-carboximidamide [Compound 6]”, the IC50 in the series on HeLa was 1 µM.

With `Cc1cc(C)c(C#N)c(SCC(=O)Nc2sc3c(c2C#N)CCC3)n1` [LVS-045], the IC50 at IDO1 is 26 ± 9.64 µM.

On to `COc1cc2c(cc1OC)CN(C(=O)CSc1nc(C)cc(C)c1C#N)CC2` [LVS-051], for which the “Enzymatic assay IC50 (hIDO1)” value at IDO1 is “Not Converged”.

For the compound `N#Cc1ccc(C(F)(F)F)nc1SCC(=O)Nc1ccccc1` [LBJ-11, 2-((3-Cyano-6-(trifluoromethyl)pyridin-2-yl)thio)-N-phenylacetamide], the melting point was in the range of 230 to 233 °C. In addition, the IC50 on IDO1 was 9.61 ± 0.71 µM.

In the case of `Cn1c(=O)c(Sc2ccc(Cl)cc2)c(O)c2ccccc21` [LVS-023], the “Inhibition ratio (%) @10 μM” value at IDO1 came out at 10.22 ± 1.11%.

`Cc1cc(C)c(C#N)c(SCC(=O)Nc2cccc(C)c2C)n1` [LVS-038]: the “Enzymatic assay IC50 (hIDO1)” value at IDO1 was “Not Converged”.

For the compound `Cc1ccc(NC(=O)COc2ccccc2CO)cc1` [LVS-014], the “Inhibition ratio (%) @10 μM” value at IDO1 was 11.62 ± 1.19%.

With `N#Cc1c(C(F)(F)F)cc(-c2cccs2)nc1SCC(=O)Nc1ccc(F)cc1` [LVS-037], the IC50 at IDO1 was 54.7 ± 4.7 µM.

On to `NS(=O)(=O)NCCNc1nonc1C(=NO)Nc1ccc(F)c(Br)c1` [Compound 3], for which, in the series on HeLa, the IC50 is 0.0071 µM.

With `COc1ccc(-c2ccc(C#N)c(SCC(=O)Nc3ccccc3Br)n2)cc1` [LVS-040], the IC50 at IDO1 turned out to be 74.7 ± 15.2 µM.

For `O=c1c2c(-c3ccc([N+](=O)[O-])cc3)csc2nc2n1CCC2` [LVS-004], on IDO1, the “Inhibition ratio (%) @10 μM” value came to 9.65 ± 0.09%.

Regarding `Cc1cc(C(F)(F)F)nc(SCC(=O)Nc2sc3c(c2C#N)CCC3)c1C#N` [LVS-048], at HeLa (IDO1), the EC50 worked out at 9.4 ± 0.07 µM and the “Hill slope of the curves (cellular dose response)” value (“Hill slope of the curves” for short) is reported as 0.70. For the same compound, the IC50 at IDO1 was found to be 8.76 ± 1.74 µM.

In the case of `Cc1sc2nc(SCC(=O)c3ccc(F)cc3)n(N)c(=O)c2c1C` [LVS-001], at IDO1, the IC50 turned out to be 14.2 ± 1.43 µM.

Take `Cc1cc(C(F)(F)F)c(C#N)c(SCC(=O)Nc2ncc(Br)cc2Br)n1` [LVS-052]: the IC50 at IDO1 stood at 1.38 ± 0.57 µM.

Take `O=C(Nc1ccc2nsnc2c1)c1ccc(F)cc1` [LVS-006]: at IDO1, the “Inhibition ratio (%) @10 μM” value was 15.83 ± 0.18%.

The compound `N#Cc1ccc(C(F)(F)F)nc1SCC(=O)Nc1ccccc1F` [LBJ-09, 2-((3-Cyano-6-(trifluoromethyl)pyridin-2-yl)thio)-N-(2-fluorophenyl)acetamide] yielded a melting point of 208 to 211 °C. Also, at IDO1, the IC50 turned out to be 5.81 ± 1.2 µM.

On to `COCc1cc(C)nc(SCC(=O)Nc2ccc(C)c(C)c2)c1C#N` [LVS-035], for which the IC50 on IDO1 was determined as 27.6 ± 6.82 µM.

`CN1CCc2nc(SCC(=O)Nc3ccccc3)c(C#N)cc2C1` [LVS-054]: on IDO1, the “Enzymatic assay IC50 (hIDO1)” value is “Not Converged”.

Take `Cc1nc(SCC(=O)Nc2sc3c(c2C#N)CCC3)c(C#N)c(C)c1C` [LVS-046]: the “Enzymatic assay IC50 (hIDO1)” value at IDO1 is listed as “Not Converged”.

Turning to `COc1cccc(NC(=O)CSc2nc(N)c(C#N)cc2C#N)c1` [LVS-008], at IDO1, the “Inhibition ratio (%) @10 μM” value was determined as 4.31 ± 0.04%.

For the compound `N#Cc1c(C(F)(F)F)cc(-c2cccs2)nc1SCC(=O)Nc1ccc2ccccc2c1` [LVS-034], the IC50 on IDO1 amounted to 66.2 ± 14.3 µM.

The compound `Cc1ccc(C#N)c(SCC(=O)Nc2ccc(F)cc2)n1` [LBJ-07, 2-((3-Cyano-6-methylpyridin-2-yl)thio)-N-(4-fluorophenyl)acetamide] displayed a melting point of 238 to 240 °C. For the same compound, the IC50 on IDO1 was 20.6 ± 1.12 µM.

`CCN(CC)C(=O)CSc1nc(C)cc(C)c1C#N` [LVS-033]: the IC50 at IDO1 was 36.6 ± 5.46 µM.

As for `Cc1cc(C)c(C#N)c(SCC(=O)Nc2nccs2)n1` [LVS-055], the “Enzymatic assay IC50 (hIDO1)” value on IDO1 is listed as “Not Converged”.

As to `COc1ccccc1-c1cc(C(=O)O)c2ccccc2n1` [LVS-020], at IDO1, the “Inhibition ratio (%) @10 μM” value is 0.11 ± 1.98%.

Turning to `CCc1nc(SCC(=O)Nc2sc3c(c2C#N)CCC3)c(C#N)cc1C` [LVS-047], the IC50 at IDO1 was 21.2 ± 7.1 µM.

For the compound `O=[N+]([O-])c1ccc(Oc2nsnc2N2CCOCC2)cc1` [LVS-018], the IC50 at IDO1 was 18.4 ± 2.31 µM.

On to “2-((3-Cyano-6-(trifluoromethyl)pyridin-2-yl)thio)-N-(p-tolyl)acetamide [LBJ-13]”, for which the IC50 on IDO1 amounted to 23.6 ± 2.11 µM.

As for `N#Cc1ccc(C(F)(F)F)nc1SCC(=O)Nc1ccc(F)cc1` [LBJ-08, 2-((3-Cyano-6-(trifluoromethyl)pyridin-2-yl)thio)-N-(4-fluorophenyl)acetamide], the melting point lay within 201 to 204 °C. The IC50 at IDO1 is 1.87 ± 0.83 µM.

For `Cn1c(COc2ccccc2)c(C#N)c2ccccc21` [LVS-002], the IC50 at IDO1 was 8.08 ± 1.3 µM.

Take `N#Cc1ncccc1SCC(=O)Nc1ccc(F)cc1` [LBJ-06, 2-((2-Cyanopyridin-3-yl)thio)-N-(4-fluorophenyl)acetamide]: the melting point lay in the range of 211 to 213 °C.

Regarding `Cn1cc(C[C@@H](N)C(=O)O)c2ccccc21` [Compound 1, 1-methyl-D-tryptophan], the IC50 in the series on HeLa was 1500 µM.

In the case of `N#Cc1ccccc1SCC(=O)Nc1ccc(F)cc1` [LBJ-02, 2-((2-Cyanophenyl)thio)-N-(4-fluorophenyl)acetamide], the melting point was in the range of 215 to 217 °C.

As to `O=C(CS(=O)(=O)c1ccccc1)Nc1ccc(Br)cn1` [LVS-022], the “Inhibition ratio (%) @10 μM” value at IDO1 is 21.29 ± 0.22%.

Regarding `O=C(Cn1nnnc1-c1ccccc1)c1ccc(Br)cc1` [LVS-030], at IDO1, the “Inhibition ratio (%) @10 μM” value was 2.00 ± 0.28%.

For `O=S(=O)(c1cccc2cccc(Cl)c12)N1CCCC1` [LVS-013], the “Inhibition ratio (%) @10 μM” value on IDO1 worked out at 14.15 ± 0.38%.

`Cc1ccc(C(=O)CC2(O)C(=O)N(C)c3ccccc32)cc1` (stereo not shown) [LVS-029]: the “Inhibition ratio (%) @10 μM” value at IDO1 stood at 9.91 ± 0.65%.

Take `COc1cccc(-c2ccc(C#N)c(SCC(=O)Nc3ccccc3Cl)n2)c1` [LVS-042]: the IC50 at IDO1 amounted to 38.5 ± 6.09 µM.

For `C[C@@H](C(=O)Nc1ccc(Cl)cc1)C1CCC(c2ccnc3ccc(F)cc23)CC1` (stereo partly shown) [Compound 5], the IC50 in the series with SKOV3 is 0.0034 µM.

As for `CC(C)c1ccc(C#N)c(SCC(=O)Nc2ccc(F)cc2)n1` [LVS-019], at HeLa (IDO1), the EC50 turned out to be 7.68 ± 0.27 µM and the “Hill slope of the curves” value worked out at 1.11. For the same compound, the IC50 at IDO1 amounted to 2.64 ± 0.94 µM.

As for `Cc1cc(C)c(C#N)c(SCC(=O)Nc2ccc(Cl)c(Cl)c2)n1` [LVS-039], at HeLa (IDO1), the EC50 worked out at 3.42 ± 0.56 µM and the “Hill slope of the curves” value was found to be 0.69. In addition, the IC50 on IDO1 was determined as 2.57 ± 0.42 µM.

Regarding `Cc1cc(C)c(C#N)c(SCC(=O)Nc2sc(C)c(C)c2C#N)n1` [LVS-036], the IC50 at IDO1 worked out at 78.7 ± 8.46 µM.

As to `N#Cc1cc2c(nc1SCC(=O)Nc1nccs1)CCCCC2` [LVS-043], the IC50 at IDO1 turned out to be 21.7 ± 3.18 µM.

Consider `COc1cccc(-c2ccc(C#N)c(SCC(=O)Nc3cccc(C)c3)n2)c1` [LVS-041], for which, at IDO1, the IC50 came out at 55.1 ± 10.1 µM.

On to `N#Cc1cc2c(nc1SCC(=O)Nc1cc(Cl)cc(Cl)c1)C1CCN2CC1` [LVS-053], for which the “Enzymatic assay IC50 (hIDO1)” value at IDO1 is recorded as “Not Converged”.

`N#Cc1cc2c(nc1SCC(=O)Nc1ccc(F)cc1)CCCC2` [LVS-044]: at IDO1, the IC50 came out at 49.3 ± 10 µM.

In the case of `O=C1CC(c2c[nH]c3ccc(F)cc23)C(=O)N1` (stereo not shown) [Compound 4], the half-inhibitory concentration (IC50) in the series with SKOV3 was 0.07 µM.

In turn, `N#Cc1cccnc1OCC(=O)Nc1ccc(F)cc1` [LBJ-01, 2-((3-Cyanopyridin-2-yl)oxy)-N-(4-fluorophenyl)acetamide] showed a melting point of 234 to 236 °C. The half-maximal inhibitory concentration (IC50) at IDO1 came to 19.5 ± 0.28 µM.

Take `O=C(CSc1nnc2scc(-c3ccc(Cl)cc3)n12)Nc1ccc(F)cc1` [LVS-005]: the “Inhibition ratio (%) @10 μM” value on IDO1 amounted to 30.73 ± 0.93%.

Compound `N#Cc1cnccc1SCC(=O)Nc1ccc(F)cc1` [LBJ-05, 2-((3-Cyanopyridin-4-yl)thio)-N-(4-fluorophenyl)acetamide] displayed a melting point of 232 to 234 °C. Further, the IC50 on IDO1 is 18 ± 0.13 µM.
